Test results published in patent US7351857B2, “Methods of using substituted tetralins and indanes” (Janssen Pharmaceutica N.V., priority 2002, dated 2008).

Assays:
PPARγ = target: T1, PPARγ (Homo sapiens, UniProt P37231); experiment: aP2 assay for PPAR gamma agonists (bDNA aP2 mRNA in preadipocytes); assay type: cell-based; conditions: unbracketed values; PPARγ standard FI = 70.3
T1 construct: Following the challenge of the preadipocytes, cells may be lysed with lysis buffer; endogenous in cells; host or cells: preadipocytes
T1 sequence (P37231 1-505): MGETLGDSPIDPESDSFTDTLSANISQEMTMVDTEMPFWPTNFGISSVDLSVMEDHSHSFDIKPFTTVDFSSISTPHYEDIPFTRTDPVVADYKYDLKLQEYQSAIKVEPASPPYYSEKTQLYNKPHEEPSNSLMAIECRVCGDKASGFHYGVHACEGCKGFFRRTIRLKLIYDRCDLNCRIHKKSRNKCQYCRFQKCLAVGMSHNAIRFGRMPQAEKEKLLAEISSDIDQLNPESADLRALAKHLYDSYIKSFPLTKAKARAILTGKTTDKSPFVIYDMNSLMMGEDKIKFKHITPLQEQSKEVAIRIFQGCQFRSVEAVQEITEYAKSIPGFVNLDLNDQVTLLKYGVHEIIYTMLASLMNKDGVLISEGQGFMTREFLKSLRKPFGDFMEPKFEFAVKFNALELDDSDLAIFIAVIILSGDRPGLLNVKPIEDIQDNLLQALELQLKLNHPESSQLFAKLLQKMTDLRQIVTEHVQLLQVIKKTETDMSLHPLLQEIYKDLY
Experimental: The procedure is described in detail in Burris et al., Molecular Endocrinology, 1999, 13:410, which is hereby incorporated by reference in its entirety, and aP2 assay results of agonist intrinsic activity may be presented as fold increase over vehicle in induction of aP2 mRNA production.
Twenty-four hours after the initial seeding of the 96-well plates by hand (around 20,000/well), the differentiation assay may be initiated. Medium may be removed and replaced with 150 μl of differentiation medium containing vehicle (DMSO) or test compounds. Cells may be returned to incubator for 24 hours culture. At the termination of the challenge, medium may be removed and 100 ul of lysis buffer may be added to initiate the bDNA aP2 mRNA assay. The branched DNA assay may be performed according to the manufacturer's protocol (Bayer Diagnostics; Emeryville, Calif.). Result may be expressed as the fold increase of aP2 mRNA production activated over vehicle controls. EC50's and Emax may be determined by non-linear regression with a sigmoidal fit curve.
Following the challenge of the preadipocytes, cells may be lysed with lysis buffer (Bayer Diagnostics) containing the aP2 oligonucleotides. After a 15 minute incubation at 53° C. or 30 minutes at 37° C. incubator, 70 ul of the lysis buffer from each well may be added to a corresponding capture well (preincubated with 70 ul of blocking buffer (Bayer Diagnostics)). The capture plate may be incubated overnight at 53° C. in a plate incubator (Bayer Diagnostics). After this incubation, the bDNA and labeled probes may be annealed as directed by the manufacturer. Following a 30-minute incubation with the luminescent alkaline phosphatase substrate, dioxitane, the luminescence may be quantitated in a Dynex MLX microtiter plate luminometer. Oligonucleotide probes designed to anneal to the aP2 mRNA and function in the bDNA mRNA detection system are designed with ProbeDesigner software (Bayer Diagnostics). This software package analyzes a target sequence of interest with a series of algorithms in order to determine which regions of the sequence can perform as locations for capture, label, or spacer probe annealing. The sequences of the oligonucleotides are as follows: […]

PPARδ = target: T2, PPARδ (Homo sapiens, UniProt Q03181); experiment: Transfection assay for PPARδ receptors (PPAR-Gal4 / Gal4-luciferase reporter in HEK293 cells); assay type: cell-based; conditions: unbracketed values, PPARδ standard FI = 36.1
T2 sequence (Q03181 171-441 limits assumed): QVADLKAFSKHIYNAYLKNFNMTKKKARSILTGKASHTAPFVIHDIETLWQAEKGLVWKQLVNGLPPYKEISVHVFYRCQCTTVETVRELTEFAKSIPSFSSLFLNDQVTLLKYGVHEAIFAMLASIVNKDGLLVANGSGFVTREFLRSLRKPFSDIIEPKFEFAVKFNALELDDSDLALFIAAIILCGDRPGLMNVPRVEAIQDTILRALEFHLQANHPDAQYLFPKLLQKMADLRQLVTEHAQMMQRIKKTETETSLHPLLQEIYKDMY
Experimental: HEK293 cells were grown in DMEM/F-12 Media supplemented with 10% FBS and glutamine (GIBCOBRL). The cells were co-transfected with DNA for PPAR-Gal4 receptor and Gal4-Luciferase Reporter using the DMRIE-C Reagent. On the following day, the DNA-containing medium were replaced with 5% Charcoal treated FBS growth medium. After six hours, cells were seeded in 96 well plate and incubated at 37° C. in CO2 incubator overnight. Cells were challenged by test compounds and incubated for 24 hours at 37° C. in 5% CO2 incubator. Luciferase activity was assayed using the Steady-Glo Luciferase Assay Kit from Promega. DMRIE-C Reagent was purchased from GIBCO Cat. No. 10459-014. OPTI-MEM I Reduced Serum Medium was purchased from GIBCO Cat. No. 31985. Steady-Glo Luciferase Assay Kit was obtained from Promega Part# E254B.

ob/ob mice = experiment: 11 day oral dosing in female ob/ob mice: serum TG, glucose, insulin; assay type: in vivo; conditions: 1.0 mpk, oral once daily 11 days, % change vs vehicle
Experimental: (Female ob/ob mice (C57 BU6J-Lep^ob, Jackson Labs, Bar Harbor, Me.), 7 weeks of age, were housed two per cage in solid-bottomed shoe box cages. Room temperature was maintained at 68-72° F. and humidity at 50-65%. Room lighting was on a 12-hour light/12-hour dark cycle. Mice were fed a certified NIH Rat and Mouse diet #5K50 (P M I Nutrition Int'l, St. Louis, Mo., via W. F. Fisher and Son, Inc., Bound Brook, N.J.). Food and water were supplied ad libitum.
The compound was prepared as suspensions in 0.5% hydroxypropyl-methylcellulose (Dow Chemical, Midland, Mich.). The dosing volume was 10 mL/kg of body weight. Female ob/ob diabetic mice (8/group) were orally gavaged once daily for 11 days with either 0.5% methylcellulose in dH2O (vehicle) or PPAR agonist at 0.003, 0.01, 0.03, 0.1, 0.3, 1 mg/kg/day. Body weight was measured in the mornings on Day 1, prior to dosing, and on Day 12 before bleeding. 18 hours after the final dose for each group, the mice were anesthetized with CO2/O2 (70%:30%) and bled by retro-orbital sinus puncture into micro-tubes containing clog activator and then put in ice. The serum samples were prepared by centrifugation. Serum glucose and triglycerides were determined by using COBAS Mira Plus blood chemistry analyzer (Roche Diagnostics, N.J.). Serum insulin and free fatty acids were measured by using ALPCO insulin ELISA kit and Wako NEFA kit, respectively. […]

| SMILES | PPARγ FI (fold induction) (PPARγ) | PPARδ FI (fold induction) (PPARδ) | Δ Plasma Glucose (ob/ob mice) | Δ Plasma Insulin (ob/ob mice) |
| --- | --- | --- | --- | --- |
| CCN(C(=O)Nc1ccc(OC(F)(F)F)cc1)C1Cc2ccc(SC(C)(C)C(=O)O)cc2C1 (centres unmarked) [Example 2, 2-{2-[1-Ethyl-3-(4-trifluoromethoxyphenyl)ureido]indan-5-ylsulfanyl}-2-methylpropionic acid] | 0.24 | 4.2 | – | – |
| CCCCCN(C(=O)Nc1ccc(OC(F)(F)F)cc1)C1Cc2ccc(SC(C)(C)C(=O)O)cc2C1 (centres unmarked) [Example 8, 2-Methyl-2-{2-[1-pentyl-3-(4-trifluoromethoxyphenyl)ureido]indan-5-ylsulfanyl}-2-methylpropionic acid] | 1.9 | 5.9 | – | – |
| CCCCCCN(C(=O)Nc1ccc(OC(F)(F)F)cc1)C1Cc2ccc(SC(C)(C)C(=O)O)cc2C1 (centres unmarked) [Example 14, 2-Methyl-2-{2-[1-hexyl-3-(4-trifluoromethoxyphenyl)ureido]indan-5-ylsulfanyl}propionic acid] | 0.3 | 1.3 | – | – |
| CCCCCN(C(=O)Nc1ccc(N(C)C)cc1)C1Cc2ccc(SC(C)(C)C(=O)O)cc2C1 (centres unmarked) [Example 9, 2-{2-[3-(4-Dimethylaminophenyl)-1-pentylureido]indan-5-ylsulfanyl}-2-methylpropionic acid] | 2.9 | 1.0 | – | – |
| CCN(C(=O)Nc1ccc(C(C)C)cc1)C1Cc2ccc(SC(C)(C)C(=O)O)cc2C1 (centres unmarked) [Example 6, 2-{2-[1-Ethyl-3-(4-isopropylphenyl)ureido]indan-5-ylsulfanyl}-2-methylpropionic acid] | 1.9 | 3.6 | – | – |
| CCCCCN(C(=O)Nc1ccc(SC(F)(F)F)cc1)C1Cc2ccc(SC(C)(C)C(=O)O)cc2C1 (centres unmarked) [Example 5, 2-Methyl-2-{2-[1-pentyl-3-(4-trifluoromethylsulfanylphenyl)ureido]indan-5-ylsulfanyl}propionic acid] | 4.0 | 2.5 | – | – |
| CCN(C(=O)Nc1ccc(OC(F)(F)F)cc1)C1CCc2cc(SC(C)(C)C(=O)O)c(F)cc2C1 (centres unmarked) [Example 50, 2-{6-[1-Ethyl-3-(4-trifluoromethoxyphenyl)ureido]-3-fluoro-5,6,7,8-tetrahydronaphthalen-2-ylsulfanyl}-2-methylpropionic acid] | – | – | −74% | −93% |
